Source: US20170312282A1, “TYROSINE KINASE INHIBITOR FORMULATIONS FOR THE TREATMENT OF MAST CELL-MEDIATED INFLAMMATORY DISEASES AND METHODS OF USE THEREOF” (The Board of Trustees of the Leland Stanford Junior …, priority 2016, published 2017)

Key:
[1] = test system: FLT3, KIT, MET, RET, VEGFR2; conditions: one bound for FLT3, KIT; cited from earlier work
DMM-induced OA = assay: Systemic imatinib in DMM model of OA (Example 5); type: in vivo, mice; conditions: 33 mg/kg/day or 100 mg/kg, orally twice-daily for 12 weeks starting one day after DMM surgery
ABL, KIT, PDGFRs, DDRs = conditions: read-out: IC50 (nM/L), one bound for ABL; cited from earlier work
allergic rhinitis = conditions: phase II clinical trial for allergic rhinitis; cited from earlier work
allergic rhinorrhea = conditions: intranasal dosing; cited from earlier work
[2] = test system: tie2, pdgfrs, ret, kit, B-RAF; conditions: one bound for tie2, pdgfrs; cited from earlier work
[3] = test system: VEGFRs, PDGFRs, B-RAF, MEK, ERK, c-FMS; conditions: one bound for VEGFRs; cited from earlier work

In the case of `COc1cc2nccc(Oc3ccc(NC(=O)C4(C(=O)Nc5ccc(F)cc5)CC4)cc3)c2cc1OC` [Cabozatinib], the IC50 [1] is listed as under 15 nM.
For `Cc1ccc(NC(=O)c2ccc(CN3CCN(C)CC3)cc2)cc1Nc1nccc(-c2cccnc2)n1` [Imatinib], the “development of DMM-induced OA (histological scores of cartilage damage, synovitis and osteophyte formation)” value (DMM-induced OA) was “prevented the development of DMM-induced OA”.
For `Oc1cccc(Nc2ncc(F)c(Nc3cccc(O)c3)n2)c1` [R112], the efficacy versus placebo (allergic rhinitis) is given as “lack of efficacy versus placebo”, the allergic rhinorrhea (allergic rhinorrhea) is given as “effectively improved allergic rhinorrhea” and the safety (allergic rhinorrhea) is given as “safe”.
In the case of `CNC(=O)c1cc(Oc2ccc(NC(=O)Nc3ccc(Cl)c(C(F)(F)F)c3)cc2)ccn1` [Sorafenib], the IC50 [3] is listed as under 100 nM.
